From publication PMC3489043 (Nature neuroscience, 2011)
Where two headings read alike, the source gives them in different places.

Assays:
[1] = target: human α7 AChR (Homo sapiens, UniProt P36544); type: binding
[2] = system: mutant α7 AChRs; type: binding, human
[3] = system: α7 AChRs; conditions: cited from earlier work
[4] = system: muscle AChRs; conditions: cited from earlier work
[5] = system: α7–AChBP chimera; test: Radiolabeled ligand binding to the α7–AChBP chimera; parameters: species or system human / Lymnaea stagnalis
[6] = target: mutant α7 AChRs (Homo sapiens, UniProt P36544, W77F); type: binding
Sequence of mutant α7 AChRs (Homo sapiens, UniProt P36544, W77F) (P36544 23-502 W77F): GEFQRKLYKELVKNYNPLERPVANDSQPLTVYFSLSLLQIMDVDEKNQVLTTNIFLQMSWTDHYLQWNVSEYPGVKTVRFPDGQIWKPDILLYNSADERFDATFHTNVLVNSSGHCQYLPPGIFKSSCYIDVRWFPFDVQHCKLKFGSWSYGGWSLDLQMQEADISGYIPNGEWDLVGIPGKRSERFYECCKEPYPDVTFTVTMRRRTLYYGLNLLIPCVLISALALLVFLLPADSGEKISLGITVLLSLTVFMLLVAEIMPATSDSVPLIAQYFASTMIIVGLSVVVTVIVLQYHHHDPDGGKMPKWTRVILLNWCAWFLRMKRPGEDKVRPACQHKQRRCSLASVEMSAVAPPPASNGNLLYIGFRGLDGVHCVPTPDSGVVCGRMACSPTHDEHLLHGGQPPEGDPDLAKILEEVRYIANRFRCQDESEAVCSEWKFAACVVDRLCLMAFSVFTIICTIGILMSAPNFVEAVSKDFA

Sequence of human α7 AChR (P36544 23-502): as the sequence (P36544 23-502 W77F) above, with F55W counted along it

CC(=O)OCC[N+](C)(C)C [ACh, acetylcholine]
cooperativity of ACh binding ([1]; steady-state binding): highly cooperative | change of agonist affinity for the α7 AChR ([2]; substitutions at Arg182, Glu185, Glu181 (loop C) and Gln37, steady-state binding): increased affinity

C[N+](C)(C)CCO [choline]
efficacy at α7 AChRs [3]: high efficacy | efficacy at muscle AChRs [4]: low efficacy

Clc1ccc(C2CC3CCC2N3)cn1 (stereo not shown) [epibatidine]
binding of radiolabeled ligand to the α7–AChBP chimera ([5]; radiolabeled ligand, Supplementary Fig. 2): bound | epibatidine binding to the α7 AChR [1]: cooperatively and with high affinity | cooperativity of epibatidine binding [6]: markedly reduced cooperativity | cooperativity of epibatidine binding [2]: maintained cooperativity | increase of the apparent dissociation constant by phenylalanine substitutions [2]: 4- to 2,200 fold

α-bungarotoxin
binding of radiolabeled ligand to the α7–AChBP chimera [5]: bound
